Values of other authors as cited in patent publication US20140031310A1, “PHARMACEUTICAL COMPOSITIONS AND METHODS FOR MAKING AND USING THEM” (priority 2011, published 2014).

Tests used:
[1] = in vivo
[2] = in vivo; remark: listed apart in the source

CNC(=O)c1cc(Oc2ccc(NC(=O)Nc3ccc(Cl)c(C(F)(F)F)c3)cc2)ccn1 [sorafenib]
pharmacokinetic half-life [1]: 20 to 24 h

bevacizumab: anti-VEGF mAb
leads to HFSR / skin toxicity [2]: Neither anti-VEGF mAbs (bevacizumab) nor PDGF-R inhibitors (e.g., imatinib) lead to HFSR
